One experiment has as its target T1, PI3Kalpha (Homo sapiens, UniProt P42336).
T1 construct: His (N); host or cells: SF9 insect cells (baculovirus)
The experiment can be described thus: Human PI3Kα enzyme assay (HTRF). It counts as biochemical. The text has this:
(§1) The catalytic subunits of PI3Ks are cloned into either pDEST8(p110 alpha) or pDEST10(p110beta, p110delta, and p110gamma) as N-terminal His tagged fusion proteins using the Gateway system (Invitrogen, catalog#11804-010 for pDEST8 and 11806-015 for pDEST10). The sequences are verified before recombinant protein expression using the Baculovirus Expression System with Gateway® Technology. The accession numbers for the subunits are as follows: • p110 alpha (GB: U79143) • p110beta (GB: S67334) • p110delta (GB: U86453) • p110gamma (GB: X83368)
(§2) The regulatory subunits of PI3Ks are cloned into pDEST8 as un-tagged protein using the Gateway system (Catalog#11804-010). […]
(§3) 0.5 uL compounds in DMSO are added to wells of a 384 well microtitre plate (Corning 3575). […] Then 5 ul PI3K stop mix (50 mM Hepes, 5 mM DTT, 150 mM NaCl, 0.01% Tween-20, 15 mM EDTA and 25 nM biotin-PI(3,4,5)P3 (Echelon) is added to quench the reaction followed immediately by addition of 5 ul HTRF detection mix (50 mM Hepes, 5 mM DTT, 150 mM NaCl, 0.01% Tween-20, 40 mM KF, 10 nM GST:GRP-1 PH domain (Millennium Protein Sciences Group), 15 nM Streptavidin-XL (CisBio) and 0.375 nM anti-GST antibody (CisBio) at pH 7.00). The plates are then incubated for 1 hour at room temperature with shaking and then read on a BMG PheraStar Plus reader.

Another experiment addresses T2, PI3K beta (Homo sapiens, UniProt P42338).
T2 construct: His (N); host or cells: SF9 insect cells (baculovirus)
The experiment can be described thus: Human PI3K beta enzyme assay (HTRF, procedure as for PI3K alpha). In kind it is biochemical.
Source text: as §1, §2
as §3, with “reader. […]” for “reader.”
For orientation: TR-FRET usually uses a lanthanide donor and a delayed reading to cut background.

pIC50: −log10 of the molar value.

The pIC50 is the negative decadic logarithm of the IC50, by convention in mol/L.

T2 sequence (P42338 whole entry): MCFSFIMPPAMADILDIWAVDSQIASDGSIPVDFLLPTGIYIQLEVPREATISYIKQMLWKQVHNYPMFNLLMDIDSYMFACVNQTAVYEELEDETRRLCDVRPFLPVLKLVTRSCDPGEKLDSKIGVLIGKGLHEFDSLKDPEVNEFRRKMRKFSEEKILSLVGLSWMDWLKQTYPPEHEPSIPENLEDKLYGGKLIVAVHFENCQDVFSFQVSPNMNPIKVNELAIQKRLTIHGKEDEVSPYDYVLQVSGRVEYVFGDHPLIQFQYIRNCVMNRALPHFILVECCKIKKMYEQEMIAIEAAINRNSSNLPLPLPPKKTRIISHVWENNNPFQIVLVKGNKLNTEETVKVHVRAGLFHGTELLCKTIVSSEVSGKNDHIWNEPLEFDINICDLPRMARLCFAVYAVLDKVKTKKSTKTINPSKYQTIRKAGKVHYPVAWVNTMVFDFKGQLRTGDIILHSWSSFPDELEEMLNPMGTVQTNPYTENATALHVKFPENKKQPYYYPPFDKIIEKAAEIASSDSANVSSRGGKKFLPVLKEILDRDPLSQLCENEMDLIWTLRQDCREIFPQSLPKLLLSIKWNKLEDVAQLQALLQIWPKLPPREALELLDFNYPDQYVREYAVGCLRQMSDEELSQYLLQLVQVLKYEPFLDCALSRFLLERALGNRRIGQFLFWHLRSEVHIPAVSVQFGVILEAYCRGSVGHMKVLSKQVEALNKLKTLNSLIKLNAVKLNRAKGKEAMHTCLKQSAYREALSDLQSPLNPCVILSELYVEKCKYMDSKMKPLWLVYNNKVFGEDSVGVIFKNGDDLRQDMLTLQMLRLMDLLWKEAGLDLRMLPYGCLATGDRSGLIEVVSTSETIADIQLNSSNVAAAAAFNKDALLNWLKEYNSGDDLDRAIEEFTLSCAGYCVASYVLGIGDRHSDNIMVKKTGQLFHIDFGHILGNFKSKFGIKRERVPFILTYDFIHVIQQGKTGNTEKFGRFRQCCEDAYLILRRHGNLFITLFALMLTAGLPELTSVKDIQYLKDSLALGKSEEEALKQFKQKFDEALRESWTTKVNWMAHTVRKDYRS
T2 sequence (P27986 whole entry partner): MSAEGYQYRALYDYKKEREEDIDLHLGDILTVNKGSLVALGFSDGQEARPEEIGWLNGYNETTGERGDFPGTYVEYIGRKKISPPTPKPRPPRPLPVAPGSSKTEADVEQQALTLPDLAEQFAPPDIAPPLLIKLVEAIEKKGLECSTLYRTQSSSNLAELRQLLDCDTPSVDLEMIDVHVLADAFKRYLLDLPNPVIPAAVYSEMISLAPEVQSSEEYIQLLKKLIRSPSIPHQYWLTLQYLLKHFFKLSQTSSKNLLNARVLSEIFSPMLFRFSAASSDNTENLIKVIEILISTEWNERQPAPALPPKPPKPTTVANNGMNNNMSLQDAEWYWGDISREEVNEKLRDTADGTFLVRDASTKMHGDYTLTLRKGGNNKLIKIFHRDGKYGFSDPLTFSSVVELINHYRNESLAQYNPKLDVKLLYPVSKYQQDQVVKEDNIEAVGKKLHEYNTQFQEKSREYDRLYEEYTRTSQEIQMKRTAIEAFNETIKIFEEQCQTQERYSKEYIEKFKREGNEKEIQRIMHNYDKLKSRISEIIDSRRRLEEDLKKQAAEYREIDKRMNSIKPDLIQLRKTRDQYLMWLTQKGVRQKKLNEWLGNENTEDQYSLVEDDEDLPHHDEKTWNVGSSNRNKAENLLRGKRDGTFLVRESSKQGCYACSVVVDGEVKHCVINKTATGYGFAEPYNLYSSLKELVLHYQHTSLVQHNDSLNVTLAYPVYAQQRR
T1 sequence (P42336 whole entry): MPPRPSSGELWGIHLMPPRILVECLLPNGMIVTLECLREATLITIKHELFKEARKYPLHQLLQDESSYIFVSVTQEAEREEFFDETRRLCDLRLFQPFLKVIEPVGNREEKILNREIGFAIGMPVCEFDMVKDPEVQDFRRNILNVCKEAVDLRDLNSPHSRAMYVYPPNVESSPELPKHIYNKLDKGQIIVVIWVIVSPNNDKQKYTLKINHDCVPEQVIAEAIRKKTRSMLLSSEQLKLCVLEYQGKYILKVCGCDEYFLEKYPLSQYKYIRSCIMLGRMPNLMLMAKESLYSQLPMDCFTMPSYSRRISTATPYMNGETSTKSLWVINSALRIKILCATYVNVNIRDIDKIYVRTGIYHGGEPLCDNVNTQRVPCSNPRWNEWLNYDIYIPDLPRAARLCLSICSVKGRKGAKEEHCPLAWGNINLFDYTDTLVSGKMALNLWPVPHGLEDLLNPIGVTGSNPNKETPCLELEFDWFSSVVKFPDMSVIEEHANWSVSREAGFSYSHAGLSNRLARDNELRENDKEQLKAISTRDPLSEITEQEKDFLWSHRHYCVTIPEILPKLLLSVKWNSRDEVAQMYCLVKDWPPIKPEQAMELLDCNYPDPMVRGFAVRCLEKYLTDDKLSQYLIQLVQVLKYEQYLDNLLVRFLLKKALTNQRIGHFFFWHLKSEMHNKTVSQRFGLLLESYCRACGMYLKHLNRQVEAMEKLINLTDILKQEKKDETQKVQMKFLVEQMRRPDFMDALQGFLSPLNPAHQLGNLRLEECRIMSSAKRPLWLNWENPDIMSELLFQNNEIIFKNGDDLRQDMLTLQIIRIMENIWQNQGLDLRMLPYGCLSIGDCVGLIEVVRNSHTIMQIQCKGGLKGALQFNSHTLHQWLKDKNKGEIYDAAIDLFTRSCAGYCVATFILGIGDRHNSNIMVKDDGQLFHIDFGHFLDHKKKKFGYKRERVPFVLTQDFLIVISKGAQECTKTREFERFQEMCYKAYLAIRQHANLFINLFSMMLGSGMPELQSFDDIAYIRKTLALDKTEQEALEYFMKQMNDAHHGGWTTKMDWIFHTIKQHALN
T1 sequence (P27986 whole entry partner): as the sequence (P27986 whole entry partner) above

On to `NC(=O)c1nc(-c2ccncc2)oc1Cc1ccc(Cl)cc1` [Compound 1, 5-(4-chlorobenzyl)-2-pyridin-4-yl-1,3-oxazole-4-carboxamide], for which the results for the pIC50 at PI3Kalpha and against PI3K beta were below 6.00 and 6.00 to 7.00, respectively.

As to `Clc1ccc(Cc2oc(-c3ccncc3)nc2-c2nnc[nH]2)cc1` [Compound 2, 4-[5-(4-chlorobenzyl)-4-(4H-1,2,4-triazol-3-yl)-1,3-oxazol-2-yl]pyridine], the results for the pIC50 on PI3Kalpha and at PI3K beta were below 6.00 and 6.00 to 7.00, respectively.

The values are drawn from patent US9062038B2, “Heteroaryls and uses thereof” (Millennium Pharmaceuticals, Inc., priority 2010, dated 2015).
